# Where “and” joins values, the source holds several entries; their conditions need not be identical. Equal entries are not always repeated.
# How the values were obtained:
# [1] = system: MCF‐7 cells; test: Phototoxicity, 470 nm LED, alamar blue assay; format: cell-based; settings: for Photo Index (PI), ratio of dark IC50 to light IC50: 17 J/cm^2, 470 nm LED; for IC50: Homo sapiens, MCF7, light or radiation study, 17 h incubation, 470 nm LED, 17±1.64 J/cm^2 (2.5 mW/cm^2 for 2 h)
# Method: The phototoxicity of the BODIPY's were assessed to compare the light induced toxicity of the iodinated compounds with their non‐iodinated counterparts. CHO and MCF‐7 cells were treated with B2P, B2PI, MB2P, and MB2PI in a concentration range from 0.10–1 μM for 17 h, the wells were decanted and filled with 100 μL phenol red free media prior to irradiation with a 470 nm LED (17 J/cm^2). Cell viability was determined using the alamar blue cell viability assay and % viability was calculated relative to untreated control wells.
# Dark‐ and photo‐toxicity studies were performed by seeding CHO and MCF‐7 cells in clear 96‐well plates (Nunc) and treating with varying concentrations of B2P, MB2P, B2PI and MB2PI. Phototoxicity experiments were carried out using a 470 nm LED. For hypoxic phototoxicity studies, hypoxia was mimicked by adding CoCl2 to the cells prior to irradiation. Cell viability was determined using the alamar blue assay and absorbance measured with a BMG LABTECH CLARIOstar plate reader. […]
# For 24 h dark toxicity studies, 50, 10, 5 and 1 µM stock concentrations of B2P, B2PI, MB2P and MB2PI were prepared in media to a final DMSO concentration of ≤1%. 100 µL of each concentration was added to the wells in triplicate and the plates incubated for 24 h in the dark at 37°C. Cell viability of all plate-based studies was assessed using the alamar blue assay. A 10% Resazurin-media solution (alamarBlue, Invitrogen) was added to the wells and incubated for 5 h in the absence of light. Absorbance was measured using a BMG LABTECH CLARIOstar plate reader at 570 nm and 600 nm (corrected for background subtraction). Cell viability is presented as a percentage (%) compared to untreated control wells. Plates were performed in triplicate.
# Phototoxicity and dark control plates were performed by incubating CHO or MCF-7 cells with B2P, B2PI, MB2P and MB2PI for 17 h to allow uptake, emptying the wells, replacing with phenol red free media, and irradiating at a total dose of 17 ± 1.64 J/cm2 (2 h at 2.37 ± 0.23 mW/cm2) using a 470 nm LED (TeleOpto LEDA-X LED driver and array). Control plates were incubated in the dark during the irradiation period (2 h). After irradiation, the cells were incubated in the dark overnight to allow for cell recovery. Irradiation conditions were tested on untreated cells to confirm cells remained viable at this dose before any experiments were performed and each phototoxicity plate included untreated test wells for cell viability comparison. Viability was determined using the alamar blue assay as per the cytotoxicity
# [2] = DPBF singlet oxygen (ROS) scavenger assay in methanol; settings: 470 nm LED, t=210 seconds relative to t=0, 10 mM DPBF in methanol, absorbance matched
# Method: Given the impact of the heavy iodine atom on phototoxicity, to confirm if the origin of toxicity is triplet sensitised formation of ^1O2 we carried out ROS scavenger studies with 1,3‐diphenylisobenzofuran (DPBF, Figure 6C). Stock solutions of BODIPY‐perylene were prepared under absorbance matched conditions and a BODIPY‐DPBF solution prepared at concentration of 10 mM DPBF in methanol. The BODIPY‐DPBF solution was irradiated (470 nm) from 0–210 seconds and the absorption spectra recorded every 30 seconds. In the presence of ^1O2, DPBF forms an unstable peroxide, endoperoxide 1, that readily decomposes to colourless 1,2‐dibenzoylbenzene (DBB).[51] This change is detected spectrophotometrically with depletion of DPBF absorbance at 410 nm. The DPBF assay results are represented in Figure 6C as % decrease in absorbance at 410 nm. The values are determined at t=210 seconds relative to the absorbance values recorded prior to irradiation at t=0. […] As expected, the most phototoxic compound, MB2PI, generates the most ^1O2 upon irradiation with a 470 nm LED with a 52 % decrease in DPBF absorbance at 410 nm. […] DPBF is known to be sensitive to light, therefore, to mitigate photodegradation of affecting the assay results, exposure was limited to 3.5 minutes where DPBF absorbance decrease at 410 nm is <10 % at this time point. […] Due to the photo‐vulnerability of DPBF under visible irradiation, this study is limited by a short experimental window and ignores any ROS generation over longer irradiation periods. […]
# Figure 6 ROS dye H2DCFDA (A) prior to irradiation and (B) after 5 minutes of continuous irradiation confirming ROS generation. […] A graph of ROS scavenger DPBF response to irradiation of the BODIPY‐perylene compounds is shown in (C) where a decrease in absorbance at 410 nm confirms ^1O2 generation upon photoactivation. Studies were performed with the BODIPY‐perylene compounds under absorbance matched conditions. Values shown indicate the % decrease in absorbance values recorded at t=0 and t=210 seconds and is reported as mean±standard deviation. […]
# To assess singlet oxygen (1O2) production and determine if the phototoxicity of our BODIPY complexes was caused by the generation of reactive oxygen species (ROS), a 1O2 scavenger study was completed using 1,3-diphenylisobenzofuran (DPBF). A 20 mM solution of DPBF in methanol was prepared, and stocks of the BODIPY-perylene compounds in DMSO were prepared under absorbance matched concentrations, starting at a 30 µM concentration of each. Test solutions of 1:1, DPBF: BODIPY in methanol (final concentration of 10 mM DPBF) were added to a clear 96 well plate (Nunc) and absorbance was measured using a BMG LABTECH CLARIOstar plate reader. […]
# [3] = system: MCF‐7 spheroids; test: Spheroid phototoxicity, 470 nm LED, CellTiter-Glo 3D; format: cell-based; settings: MCF‐7 3D (spheroids); for IC50: Homo sapiens, MCF7, light or radiation study, 470 nm LED, 5±0.54 J/cm^2 (2.2 mW/cm^2 for 0.5 h); for Photo Index (PI), ratio of dark IC50 to light IC50: 5 J/cm^2, 470 nm LED
# Method: 3D Cell Studies: Toxicity Assays
# Spheroids were seeded in a clear BIOFLOAT™ round bottom 96 well plate (Sarstedt) at 2x10^4 cells per well, centrifuged using the […] for 5 minutes at 700 rpm and allowed to grow and compact for 96 hours. A 2X concentrated solution of B2P, B2PI, MB2P or MB2PI was added in a 1:1 ratio (BODIPY:media) to each well of the 96 well plate, which contained 50 µL phenol red free media, and incubated for 24 h. Prior to irradiation 90% of the media/Ru solution was removed, replaced with fresh phenol red media to dilute the remaining BODIPY (multiple dilution steps, more required for 15 µM and above), and brought to a total volume of 100 µL. Phototoxicity studies in […] spheroids were performed as per the cell monolayer protocol with an irradiation dose of 5 J/cm2 using a 470 nm LED.
# Control studies with untreated spheroids confirmed 17 J/cm2 irradiation dose was toxic to spheroids, however the spheroids remained viable after 5 J/cm2 irradiation. CellTiter-Glo 3D cell viability assay (Promega) was used to assess spheroid viability and performed as per the manufacturer’s protocol, where the CellTiter-Glo 3D reagent was added to the spheroid wells
Structure (SMILES),"Photo Index (PI), ratio of dark IC50 to light IC50 [1]",IC50 [1] [µM],decrease in DPBF absorbance at 410 nm [2] [%],IC50 [3] [µM],"Photo Index (PI), ratio of dark IC50 to light IC50 [3]"
CC1=CC(C)=[N+]2C1=C(c1ccccc1)c1c(C)c(-c3ccc4c5cccc6cccc(c7cccc3c74)c65)c(C)n1[B-]2(F)F [B2P],> 182,0.274,8,6.91,6.6
CC1=C(I)C(C)=[N+]2C1=C(c1ccccc1)c1c(C)c(-c3ccc4c5cccc6cccc(c7cccc3c74)c65)c(C)n1[B-]2(F)F [B2PI],> 213,–,31,7.65,5.7
CC1=C(c2ccc3c4cccc5cccc(c6cccc2c63)c54)C(C)=[N+]2C1=C(c1c(C)cc(C)cc1C)c1c(C)cc(C)n1[B-]2(F)F [MB2P],> 109,0.457,6,6.26,> 8
CC1=C(c2ccc3c4cccc5cccc(c6cccc2c63)c54)C(C)=[N+]2C1=C(c1c(C)cc(C)cc1C)c1c(C)c(I)c(C)n1[B-]2(F)F [MB2PI],> 218,0.229,52,5.62,> 8.9 and > 8

# — publication PMC11653243, “Enhancing Phototoxicity in BODIPY‐Perylene Charge Transfer Dyads by Combined Iodination and Mesylation” (Chemistry (Weinheim an Der Bergstrasse, Germany), 2024)
